Reference: ChEMBL document CHEMBL3525981, “Metabolism and disposition of 14C-labeled peliglitazar in humans” (Drug Metab Dispos, 2011)

Legend:
Homo sapiens [1] = assay: Drug level in human assessed as retention time treated with 10 mg, po of [14C]peliglitazar by LC-MS and LC-MS/MS analysis; type: ADME, organism-based
Homo sapiens [2] = assay: Drug metabolism in human assessed as retention time of parent compound at 10 mg, po by LC-MS and LC-MS/MS analysis; type: ADME, organism-based; settings: in vivo

Compound | Retention_time (Homo sapiens [1]) | Retention_time (Homo sapiens [2])
Cc1oc(-c2ccccc2)nc1CC(=O)O | 18.5 min | –
COc1ccc(OC(=O)N(CC(=O)O)[C@@H](C)c2ccc(O)cc2)cc1 | 21 min | –
COc1ccc(OC(=O)N(CC(=O)O)[C@@H](C)c2ccc(OCC(O)c3nc(-c4ccccc4)oc3C)cc2)cc1 (stereo not given in full) | 46.8 min | –
COc1ccc(OC(=O)N(CC(=O)O)[14C@@H](C)c2ccc(O[14CH2]Cc3nc(-c4ccccc4)oc3C)cc2)cc1 | – | 65.5 min

Second part, led by results:

Retention_time (Homo sapiens [1]) | Compound | Retention_time (Homo sapiens [2])
39.5 min | COc1ccc(OC(=O)N(CC(=O)O)[C@@H](C)c2ccc(OCCc3nc(-c4ccccc4)oc3CO)cc2)cc1 | –
42.3 min | COc1ccc(OC(=O)N(CC(=O)O)[C@@H](C)c2ccc(OCCc3nc(-c4ccc(O)cc4)oc3C)cc2)cc1 | –
27.6 min | C[C@@H](c1ccc(OCCc2nc(-c3ccccc3)oc2CO)cc1)N(CC(=O)O)C(=O)Oc1ccc(O)cc1 | –
32.1 min | Cc1oc(-c2ccccc2)nc1C(O)COc1ccc([C@H](C)N(CC(=O)O)C(=O)Oc2ccc(O)cc2)cc1 (stereo not given in full) | –
32.2 min | Cc1oc(-c2ccccc2)nc1CCOc1ccc([C@H](C)N(CC(=O)O[C@@H]2O[C@H](C(=O)O)[C@@H](O)[C@H](O)[C@H]2O)C(=O)Oc2ccc(O)cc2)cc1 | –
48.4 min | Cc1oc(-c2ccccc2)nc1CCOc1ccc([C@H](C)N(CC(=O)O)C(=O)Oc2ccc(O)cc2)cc1 | –
